Key:
[1] = test system: pAKT (S473) in panel of human tumor cell lines harboring PI3Kα kinase-domain mutations and SKBR3; test: pAKT (S473) HTRF, human tumor cell line panel; type: cell-based; conditions: SK-BR-3, 1 hour treatment, read-out: pAKT IC50 values across the panel of cell lines
Description: (§1) A 384-well phospho-AKT (S473) HTRF (Homogenous Time-Resolve Fluorescence; PerkinElmer, #64AKSPEH) assay was used for target engagement. Each well was seeded with cell numbers indicated in Supplementary Table S3 in a volume of 12.5 μL in complete, phenol red-free media and then treated for 1 hour at 37°C with 5% CO2 before reading on a PHERAstar plate reader.

[2] = test system: pAKT (S473) in GP2D cells; test: pAKT (S473) HTRF; type: cell-based; conditions: Homo sapiens, H1047L, 1 hour, read-out: pAKT HTRF GMean IC50 (95% CI)
Description: as §1

[3] = test system: pAKT (S473) in T47D cells; test: pAKT (S473) HTRF; type: cell-based; conditions: Homo sapiens, 1 h, read-out: pAKT HTRF GMean IC50 (95% CI)
Description: as §1

BT20 cells = test: Cell viability CellTiter-Glo; type: cell-based; conditions: Homo sapiens, BT-20; BT20, H1047R + P539R; 72 hours; read-out: CTGlo GMean GI50 (95% CI)
Description: (§2) Cell viability was measured using CellTiter-Glo (Promega, #G9243). Indicated cell lines were seeded according to Supplementary Table S3 in 50 μL of media in 384-well plates, with 72 hours of treatment at 37°C with 5% CO2.

CAL148 cells = test: Cell viability CellTiter-Glo; type: cell-based; conditions: Homo sapiens, CAL-148; CAL148, H1047R + D350N; 72 hours; read-out: CTGlo GMean GI50 (95% CI)
Description: as §2

CAL33 cells = test: Cell viability CellTiter-Glo; type: cell-based; conditions: Homo sapiens, CAL-33; CAL33, H1047R; 72 hours; read-out: CTGlo GMean GI50 (95% CI)
Description: as §2

DETROIT562 cells = test: Cell viability CellTiter-Glo; type: cell-based; conditions: Homo sapiens, Detroit 562; DETROIT562, H1047R; 72 hours; read-out: CTGlo GMean GI50 (95% CI)
Description: as §2

EFM19 cells = test: Cell viability CellTiter-Glo; type: cell-based; conditions: Homo sapiens, EFM-19; EFM19, H1047L; 72 hours; read-out: CTGlo GMean GI50 (95% CI)
Description: as §2

GP2D cells = test: Cell viability CellTiter-Glo; type: cell-based; conditions: Homo sapiens, H1047L, 72 hours, read-out: CTGlo GMean GI50 (95% CI)
Description: as §2

HCC1954 cells = test: Cell viability CellTiter-Glo; type: cell-based; conditions: Homo sapiens; HCC1954, H1047R; 72 hours; read-out: CTGlo GMean GI50 (95% CI)
Description: as §2

NCIH1048 cells = test: Cell viability CellTiter-Glo; type: cell-based; conditions: Homo sapiens, NCI-H1048; NCIH1048, H1047R + K111R; 72 hours; read-out: CTGlo GMean GI50 (95% CI)
Description: as §2

OAW42 cells = test: Cell viability CellTiter-Glo; type: cell-based; conditions: Homo sapiens, OAW-42; OAW42, H1047L; 72 hours; read-out: CTGlo GMean GI50 (95% CI)
Description: as §2

SKBR3 cells = test: Cell viability CellTiter-Glo; type: cell-based; conditions: Homo sapiens, SK-BR-3; SKBR3, WT PI3Kα; 72 hours; read-out: CTGlo GMean GI50 (95% CI)
Description: as §2

T47D cells = test: Cell viability CellTiter-Glo; type: cell-based; conditions: Homo sapiens, H1047R, 72 hours, read-out: CTGlo GMean GI50 (95% CI)
Description: as §2

[4] = test system: insulin-mediated glucose uptake in primary human subcutaneous adipocytes; test: Human adipocyte 3H-2-deoxyglucose uptake; type: cell-based
Description: Primary human subcutaneous adipocytes were treated with a test compound or vehicle for 1 hour followed by the addition of 10 nmol/L insulin and ^3H-2-deoxyglucose (Zen Bio Durham, assay #CA-25, Lot #SL0071). Cytochalasin B treatment controlled for nonspecific glucose uptake. Corrected counts per minute were determined using a scintillation counter.

Plasma exposure in mice = type: in vivo, mouse
[5] = Insulin tolerance test (ITT) and oral glucose tolerance test (OGTT); type: in vivo, mouse; conditions: 50 mg/kg dose levels
[6] = test system: CAL-33 (H1047R PI3Kα) HNSCC xenograft; test: CAL-33 xenograft efficacy study; type: in vivo, mouse; conditions: Alpelisib 50 mg/kg QD, Day 28
[7] = test system: pAKT (S473) in CAL-33 tumors; test: CAL-33 tumor PK/PD, pAKT/AKT Western blot; type: in vivo, mouse; conditions: 50 mg/kg q.d.
[8] = test system: glucose oxidation in tumor and skeletal muscle; test: [U-13C]-glucose metabolic profiling in CAL-33 tumor-bearing mice; type: in vivo, mouse; conditions: alpelisib 50 mg/kg; 30 minutes after [U-13C]-glucose
[9] = test system: Detroit 562 HNSCC xenograft; test: Detroit 562 xenograft efficacy study; type: in vivo, mouse
[10] = test system: HCC1954 breast cancer xenograft; test: HCC1954 xenograft efficacy study; type: in vivo, mouse; conditions: Alpelisib 50 mg/kg QD, Day 28
[11] = cited from earlier work
[12] = patients; cited from earlier work
[13] = alpelisib with ribociclib and fulvestrant, in the clinic; cited from earlier work
[14] = Tolerability measures in CDX studies: body weight and insulin 1 hour after dose; conditions: for Δ Insulin: Alpelisib 50 mg/kg QD, one-hour post dose
[15] = STX-478 100 mg/kg q.d., alpelisib 50 mg/kg q.d.

Cc1nc(NC(=O)N2CCC[C@H]2C(N)=O)sc1-c1ccnc(C(C)(C)C(F)(F)F)c1 [alpelisib]
IC50 [1]: 28 to 268 nM | IC50 [2]: 66 nM | IC50 [3]: 58 nM | GI50 (BT20 cells): 516 nM | GI50 (CAL148 cells): 962 nM | GI50 (CAL33 cells): 340 nM | GI50 (DETROIT562 cells): 436 nM | GI50 (EFM19 cells): 127 nM | GI50 (GP2D cells): 298 nM | GI50 (HCC1954 cells): 384 nM | GI50 (NCIH1048 cells): 67 nM | GI50 (OAW42 cells): 601 nM | GI50 (SKBR3 cells): 335 nM | GI50 (T47D cells): 334 nM | glucose uptake inhibition ([4]; 10 μmol/L): nearly complete inhibition | Emax ([4]; Homo sapiens, Adipocyte, 10 nmol/L insulin, read-out: maximum effect (Emax) for glucose uptake inhibition): 88% | mouse exposure over exposure of maximum approved human dose (Plasma exposure in mice; 50 mg/kg q.d. in mice): approximately 2 fold | AUC (Plasma exposure in mice; mouse, plasma, oral, mice, 50 mg/kg q.d.): ~75000 ng·h/mL | insulin resistance [5]: overt insulin resistance | TGI (%) [6]: 79% | average pAKT suppression (treated/vehicle AUC1–12h) [7]: 66% | glucose oxidation in skeletal muscle [8]: reductions in glucose oxidation in the skeletal muscle | TGI (%) ([9]; Alpelisib 50 mg/kg QD, Day 22): 96% | tumor regressions [9, 15]: tumor regressions in five of the nine study animals | TGI (%) [10]: 77% | exposure of the maximum approved human dose (AUC) [11]: ~33,000 ng*h/mL | rate of permanent discontinuations [12]: ≤ 46% | rate of safety-related dose reduction [12]: up to 42% | tolerability of triple combination [13]: not tolerated in the clinic | Δ Insulin ([14]; Cal33 model): +1.07 ng/mL | Δ Insulin ([14]; Detroit 562 model): +2.33 ng/mL | Δ Insulin ([14]; GP2D model): +1.59 ng/mL | Δ Insulin ([14]; HCC1954 model): +2.38 ng/mL | Δ Insulin ([14]; NCI-H1048 model): +1.21 ng/mL | effects on body weight across studies [14, 15]: No treatment-specific effects on body weight | Δ Insulin ([14]; T-47D model): +0.79 ng/mL

— paper PMC10618743 (Cancer Discovery, 2023)
